Reference: the supplement of paper PMC9663587

How the values were obtained:
[1] = compound: CC(=O)O[C@H]1C(=O)[C@@]2(C)[C@H]([C@H](OC(=O)c3ccccc3)[C@]3(O)C[C@H](OC(=O)[C@H](O)[C@@H](NC(=O)c4ccccc4)c4ccccc4)C(C)=C1C3(C)C)[C@]1(OC(C)=O)CO[C@@H]1C[C@@H]2O [Paclitaxel]
[2] = compound: T1, CC(=O)c1c(C)c2cnc(Nc3ccc(N4CCN(CCOCCOCCOCCNC(=O)COc5cccc6c5C(=O)N(C5CCC(=O)NC5=O)C6=O)CC4)cn3)nc2n(C2CCCC2)c1=O [BSJ-03-123]
[3] = compound: CC(C)n1nc(-c2ccc3oc(N)nc3c2)c2c(N)ncnc21 [INK128/MLN0128]
[4] = compound: CCN1CCN(Cc2ccc(Nc3ncc(F)c(-c4cc(F)c5nc(C)n(C(C)C)c5c4)n3)nc2)CC1
[5] = compound: T2, CCOc1cc2ncc(C#N)c(Nc3ccc(OCc4ccccn4)c(Cl)c3)c2cc1NC(=O)/C=C/CN(C)C [Neratinib/HKI272]
[6] = compound: CC[C@@H]1C(=O)N(C)c2cnc(Nc3ccc(C(=O)N[C@H]4CC[C@H](N5CCN(CC6CC6)CC5)CC4)cc3OC)nc2N1C(C)C [Volasertib/BI6727]
[7] = compound: T3, CN(C)C(=O)c1cc2cnc(Nc3ccc(N4CCNCC4)cn3)nc2n1C1CCCC1 [LEE011/Ribociclib]
[8] = compound: CN(C)C/C=C/C(=O)Nc1ccc(C(=O)N2CCC[C@@H](Nc3ncc(Cl)c(-c4c[nH]c5ccccc45)n3)C2)cc1 [THZ531]
[9] = compound: CN(C)CC[C@H](CSc1ccccc1)Nc1ccc(S(=O)(=O)NC(=O)c2ccc(N3CCN(Cc4ccccc4-c4ccc(Cl)cc4)CC3)cc2)cc1[N+](=O)[O-] [ABT-737]
[10] = compound: COc1ccc2c(c1)[C@]1(C[C@H]1c1ccc3c(/C=C/c4ccc(CN5C[C@@H](C)O[C@@H](C)C5)cc4)n[nH]c3c1)C(=O)N2
[11] = compound: CS(=O)(=O)N1CCN(Cc2cc3nc(-c4cccc5[nH]ncc45)nc(N4CCOCC4)c3s2)CC1 [Pictilisib/GDC0941]
[12] = compound: Cc1cc(Nc2ncc(Cl)c(Nc3ccccc3S(=O)(=O)C(C)C)n2)c(OC(C)C)cc1C1CCNCC1 [Ceritinib/LDK378]
[13] = compound: Cc1nc(-c2cn3c(n2)-c2ccc(-c4cnn(C(C)(C)C(N)=O)c4)cc2OCC3)n(C(C)C)n1 [Taselisib/GDC0032]
[14] = compound: O=C1NC(=O)[C@@H](c2cn3c4c(cccc24)CCC3)[C@@H]1c1c[nH]c2ccccc12 [Tivantinib/ARQ197]
[15] = compound: C=CC(=O)Nc1ccc(C(=O)Nc2[nH]nc3c2CN(C(=O)N[C@H](CN(C)C)c2ccccc2)C3(C)C)cc1 [YKL-5-124]; experiment: GR value, 72 h; higher = faster growth (1 = untreated, <0 = killing);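 further: breast cancer and non-malignant breast epithelial lines, nine half-log doses, viable cells counted by Hoechst and LIVE/DEAD dye imaging versus time-zero plates and DMSO controls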
[16] = compound: T1, BSJ-03-123; experiment: as above
[17] = compound: CCN1CCN(Cc2ccc(Nc3ncc(F)c(-c4cc(F)c5nc(C)n(C(C)C)c5c4)n3)nc2)CC1; experiment: as above
[18] = compound: T2, Neratinib/HKI272; experiment: as above
[19] = compound: CCc1cnn2c(NCc3ccc[n+]([O-])c3)cc(N3CCCC[C@H]3CCO)nc12; experiment: as above
[20] = compound: T3, LEE011/Ribociclib; experiment: as above
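Wherever GR50, 72 h is given: breast cancer and non-malignant breast epithelial cell lines, Deep Dye Drop or Dye Drop imaging, nine half-log doses, GR normalized to time-zero plates and DMSO-only controls.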

SUM190PT
GR50, 72 h [1]: 0.000878 µM | GR50, 72 h [2]: 0.0593 µM | GR50, 72 h [3]: 0.0134 µM | GR50, 72 h [4]: 0.0206 µM | GR50, 72 h [5]: 1.88 µM | GR50, 72 h [6]: 0.0086 µM | GR50, 72 h [7]: 0.0246 µM | GR50, 72 h [8]: 0.0528 µM | GR50, 72 h [9]: 0.362 µM | GR50, 72 h [10]: 0.00062 µM | GR50, 72 h [11]: 3.1 µM | GR50, 72 h [12]: 0.528 µM | GR50, 72 h [13]: 0.962 µM | GR50, 72 h [14]: 0.0433 µM | GR value ([15]; 0.001 µM): 0.557 GR | GR value ([15]; 0.003162 µM): 0.365 GR | GR value ([15]; 0.01 µM): 0.267 GR | GR value ([15]; 0.03162 µM): 0.198 GR | GR value ([15]; 0.1 µM): 0.212 GR | GR value ([15]; 0.3162 µM): 0.0489 GR | GR value ([15]; 1 µM): 0.154 GR | GR value ([15]; 3.162 µM): 0.102 GR | GR value ([15]; 10 µM): -0.42 GR | GR value ([16]; 0.001 µM): 0.831 GR | GR value ([16]; 0.003162 µM): 0.729 GR | GR value ([16]; 0.01 µM): 0.533 GR | GR value ([16]; 0.03162 µM): 0.491 GR | GR value ([16]; 0.1 µM): 0.451 GR | GR value ([16]; 0.3162 µM): 0.371 GR | GR value ([16]; 1 µM): 0.396 GR | GR value ([16]; 3.162 µM): 0.354 GR | GR value ([16]; 10 µM): -0.286 GR | GR value ([17]; 0.001 µM): 0.779 GR | GR value ([17]; 0.003162 µM): 0.586 GR | GR value ([17]; 0.01 µM): 0.444 GR | GR value ([17]; 0.03162 µM): 0.349 GR | GR value ([17]; 0.1 µM): 0.395 GR | GR value ([17]; 0.3162 µM): 0.309 GR | GR value ([17]; 1 µM): 0.343 GR | GR value ([17]; 3.162 µM): 0.259 GR | GR value ([17]; 10 µM): -0.611 GR | GR value ([18]; 0.0003162 µM): 1.06 GR | GR value ([18]; 0.001 µM): 1.04 GR | GR value ([18]; 0.003162 µM): 1.06 GR | GR value ([18]; 0.01 µM): 0.999 GR | GR value ([18]; 0.03162 µM): 1.08 GR | GR value ([18]; 0.1 µM): 0.956 GR | GR value ([18]; 0.3162 µM): 0.915 GR | GR value ([18]; 1 µM): 0.658 GR | GR value ([18]; 3.162 µM): 0.429 GR | GR value ([19]; 0.0001 µM): 0.917 GR | GR value ([19]; 0.0003162 µM): 0.931 GR | GR value ([19]; 0.001 µM): 0.951 GR | GR value ([19]; 0.003162 µM): 1.06 GR | GR value ([19]; 0.01 µM): 0.98 GR | GR value ([19]; 0.03162 µM): -0.207 GR | GR value ([19]; 0.1 µM): -0.627 GR | GR value ([19]; 0.3162 µM): -0.643 GR | GR value ([19]; 1 µM): -0.724 GR | GR value ([20]; 0.001 µM): 0.777 GR | GR value ([20]; 0.003162 µM): 0.632 GR | GR value ([20]; 0.01 µM): 0.576 GR | GR value ([20]; 0.03162 µM): 0.542 GR | GR value ([20]; 0.1 µM): 0.453 GR | GR value ([20]; 0.3162 µM): 0.46 GR | GR value ([20]; 1 µM): 0.0072 GR | GR value ([20]; 3.162 µM): 0.199 GR | GR value ([20]; 10 µM): 0.383 GR
